Results as given in US6194437A (Warner-Lambert Company, priority 1999, dated 2001).
pKi: −log10 of the molar value.

Tests used:
[1] = target: T1, cloned human NMB-preferring receptor (BB1) (Homo sapiens, UniProt P28336); test: Receptor binding assay, cloned human NMB-preferring receptor (BB1), [125I][Tyr4]bombesin displacement; details: CHO-K1 cell membranes, 60 minutes incubation
T1 construct: expressed in transfected cells
Experimental: (§1) For binding experiments, cells were harvested by trypsinization, and stored frozen at -70° C. in Ham's F12 culture medium containing 5% DMSO until required. On the day of use, cells were thawed rapidly, diluted with an excess of culture medium, and centrifuged for 5 minutes at 2000 g. Cells were resuspended in 50 mM Tris-HCl assay buffer (pH 7.4 at 21° C., containing 0.02% BSA, 40 μg/ml bacitracin, 2 μg/mL chymostatin, 4 μg/mL leupeptin, and 2 μM phosphoramidon), counted, and polytronned (setting 5, 10 sec) before centrifuging for 10 minutes at 28,000 g. The final pellet was resuspended in assay buffer to a final cell concentration of 1.5×10^5 /mL. […] Radioactivity bound was determined using a gamma counter.

[2] = target: T2, cloned human GRP-preferring receptor (BB2) (Homo sapiens, UniProt P30550); test: Receptor binding assay, cloned human GRP-preferring receptor (BB2), [125I][Tyr4]bombesin displacement; details: CHO-K1 cell membranes, 90 minutes incubation
T2 construct: expressed in transfected cells
T2 sequence (P30550 whole entry): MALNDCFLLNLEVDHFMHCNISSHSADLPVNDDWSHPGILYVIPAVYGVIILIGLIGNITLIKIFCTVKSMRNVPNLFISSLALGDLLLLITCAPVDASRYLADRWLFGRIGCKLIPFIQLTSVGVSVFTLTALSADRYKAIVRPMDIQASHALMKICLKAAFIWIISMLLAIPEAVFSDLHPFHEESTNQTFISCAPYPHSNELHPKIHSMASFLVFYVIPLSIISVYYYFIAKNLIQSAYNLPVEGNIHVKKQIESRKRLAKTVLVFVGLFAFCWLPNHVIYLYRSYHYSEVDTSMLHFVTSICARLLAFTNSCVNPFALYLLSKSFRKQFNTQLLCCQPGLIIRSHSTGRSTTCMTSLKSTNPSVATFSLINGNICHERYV
Experimental: as §1, with “The compounds of the invention have been evaluated in receptor binding assays which measure the affinity of the novel compounds in a cloned human NMB-preferring receptor (BB1) assay and in a cloned human GRP-preferring receptor (BB2) assay. Protocol for Binding Assays […] For” for “For”

[3] = target: T3, cloned human NMB-preferring receptors expressed in CHO cells (Homo sapiens, UniProt P28336); test: Measurement of extracellular acidification (CYTOSENSOR) in CHO-NMB cells; format: cell-based; details: NMB-preferring receptor (BB1), antagonist 30 minutes prior to agonist, 37° C.
T3 construct: functional calcium (Fura-2) and Cytosensor acidification assays
T3 sequence (P28336 whole entry): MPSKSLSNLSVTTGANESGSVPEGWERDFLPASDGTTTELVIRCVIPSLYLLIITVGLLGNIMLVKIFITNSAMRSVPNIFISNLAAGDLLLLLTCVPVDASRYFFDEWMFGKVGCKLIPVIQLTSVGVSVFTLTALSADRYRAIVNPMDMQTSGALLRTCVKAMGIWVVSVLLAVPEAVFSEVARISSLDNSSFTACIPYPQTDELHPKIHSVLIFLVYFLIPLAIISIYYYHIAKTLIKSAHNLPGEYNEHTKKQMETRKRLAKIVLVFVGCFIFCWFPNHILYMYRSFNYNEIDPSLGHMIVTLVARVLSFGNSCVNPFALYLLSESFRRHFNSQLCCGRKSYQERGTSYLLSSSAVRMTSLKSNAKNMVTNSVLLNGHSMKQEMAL
Description: The compounds of the invention have been tested in in vitro functional assays using cloned human NMB-preferring receptors expressed in CHO cells.
Protocols for functional assays:
2. Measurement of extracellular acidification (CYTOSENSOR)
This acidification rate is detected as a change in potential across a silicon light addressable sensor, during periods of media cessation (McConnell, et al., 1992).
CHO-NMB Cells seeded on polycarbonate microporous capsule cups were placed insensor chambers at 37° C. inside the microphysiometer, and maintained by a flow of nonbuffering Ham's F12 nutrient media (growth media without NaHCO3, pH 7.3-7.4) at approximately 120 μL/min. The flow was halted for 22 seconds at the end of each 2 minute repeated cycle, and the rate of acidification (μ volts/sec) measured for 15 seconds during that period.
Agonists were introduced sequentially every 28 to 30 minutes to the perfusing media, 20 seconds before flow-off periods, and removed after two rate measurements via the automatic valve-switch.
The effects of various antagonists were determined after continuous perfusion 30 minutes prior to, and throughout the application of agonists. All agents were applied at the working pH of the media.

T1 sequence (P28336 whole entry): as above

| SMILES | pKi [1] | pKi [2] | Acidification Response appKB [3] |
| --- | --- | --- | --- |
| CC(C)c1cccc(C(C)C)c1NC(=O)N[C@](C)(Cc1c[nH]c2ccccc12)C(=O)N[C@H]1CCc2ccccc21 [Example 3, 2-[3-(2,6-Diisopropyl-phenyl)-ureido]-N-indan-1-yl-3-(1H-indol-3-yl)-2-methyl-propionamide] | 6.89 | < 5.00 |  |
| COc1cccc(OC)c1NC(=O)NC(C)(Cc1c[nH]c2ccccc12)C(=O)NCC1CCCCC1 (stereo not drawn) [Example 17, N-Cyclohexylmethyl-2-[3-(2,6-dimethoxy-phenyl)ureido]-3-(1H-indol-3-yl)-2-methyl-propionamide] | 5.48 | 5.53 |  |
| CC(C)c1cccc(C(C)C)c1NC(=O)NC(C)(Cc1c[nH]c2ccccc12)C(=O)Nc1ccccc1 (stereo not drawn) [Example 5] | 6.03 | < 5.00 |  |
| CC(C)c1cccc(C(C)C)c1NC(=O)NC(C)(Cc1c[nH]c2ccccc12)C(=O)NCCC1CCCCC1 (stereo not drawn) [Example 4, N-(2-Cyclohexyl-ethyl)-2-[3-(2,6-diisopropyl-phenyl)-ureido]-3-(1H-indol-3-yl)-2-methyl-propionamide] | 6.67 | < 5.00 |  |
| CC(C)c1cccc(C(C)C)c1NC(=O)[C@H](Cc1c[nH]c2ccccc12)NC(=O)NC(c1ccccc1)C(C)(C)C (stereo partly drawn) [Example 18, (S)-N-(2,6-Diisopropyl-phenyl)-2-[3-(2,2-dimethyl-1-phenyl-propyl)-ureido]-3-(1H-indol-3-yl)-propionamide] | 7.60 | < 5.00 |  |
| CC(Cc1c[nH]c2ccccc12)(NC(=O)Nc1ccc([N+](=O)[O-])cc1)C(=O)NCC1(c2c[nH]cn2)CCCCC1 (stereo not drawn) [Example 31] | 9.77 | 7.68 |  |
| CC(Cc1c[nH]c2ccccc12)(NC(=O)Nc1ccc([N+](=O)[O-])cc1)C(=O)NCC(c1ccccc1)N1CCCCC1 (stereo not drawn) [Example 29] | 8.00 | < 5.00 |  |
| CC(C)c1cccc(C(C)C)c1NC(=O)N(C)C(Cc1c[nH]c2ccccc12)C(=O)NCC1CCCCC1 (stereo not drawn) [Example 10, N-Cyclohexylmethyl-2-[3-(2,6-diisopropyl-phenyl)-1-methyl-ureido]-3-(1H-indol-3-yl)-propionamide] | 6.12 | 5.84 |  |
| CCOC(=O)c1ccc(NC(=O)N[C@@](C)(Cc2c[nH]c3ccccc23)C(=O)NCC2(c3ccccn3)CCCCC2)cc1 [Example 16] | 8.52 | 6.85 |  |
| CN(C)Cc1ccc(C2(CNC(=O)C(C)(Cc3c[nH]c4ccccc34)NC(=O)Nc3ccc([N+](=O)[O-])cc3)CCCCC2)cc1 (stereo not drawn) [Example 28] | 9.09 | 7.10 |  |
| Cc1nc(C2(CNC(=O)C(C)(Cc3c[nH]c4ccccc34)NC(=O)Nc3ccc([N+](=O)[O-])cc3)CCCCC2)cs1 (stereo not drawn) [Example 26] | 9.60 | 7.54 |  |
| CC(C)c1cccc(C(C)C)c1NC(=O)N[C@](C)(Cc1c[nH]c2ccccc12)C(=O)N[C@H]1CCCc2ccccc21 [Example 2, 2-[3-(2,6-Diisopropyl-phenyl)-ureido]-3-(1H-indol-3-yl)-2-methyl-N-(1,2,3,4-tetrahydro-naphthalen-1-yl)-propionamide] | 7.85 | < 5.00 | 54.3 |
| CC(C)c1cccc(C(C)C)c1NC(=O)NC(Cc1c[nH]cn1)C(=O)NCC1(c2ccccn2)CCCCC1 (stereo not drawn) [Example 23] | 7.80 | 5.27 |  |
| CC(C)c1cccc(C(C)C)c1N(C)C(=O)NC(C)(Cc1c[nH]c2ccccc12)C(=O)NCC1CCCCC1 (stereo not drawn) [Example 24] | 6.38 | < 5.00 |  |
| CC(C)c1cccc(C(C)C)c1NC(=O)N[C@](C)(Cc1c[nH]c2ccccc12)C(=O)N[C@H]1CCCC[C@H]1c1ccccc1 [Example 6, 2-[3-(2,6-Diisopropyl-phenyl)-ureido]-3-(1H-indol-3-yl)-2-methyl-N-(2-phenyl-cyclohexyl)-propionamide] | 6.11 | < 5.00 |  |
| CC(Cc1c[nH]c2ccccc12)(NC(=O)Nc1ccc([N+](=O)[O-])cc1)C(=O)NCC1(O)CCCCC1 (stereo not drawn) [Example 9] | 8.48 | 5.95 |  |
| COc1ccc(C2(CNC(=O)C(C)(Cc3c[nH]c4ccccc34)NC(=O)Nc3ccc(C#N)cc3)CCCCC2)nc1 (stereo not drawn) [Example 32] | 9.77 | 7.70 |  |
| C[C@@](Cc1c[nH]c2ccccc12)(NC(=O)Nc1ccc(C(F)(F)F)cc1)C(=O)NCC1(c2ccccn2)CCCCC1 [Example 15] | 8.70 | 6.78 |  |
| C[C@@](Cc1c[nH]c2ccccc12)(NC(=O)Nc1ccc(C#N)cc1)C(=O)NCC1(c2ccccn2)CCCCC1 [Example 13] | 9.52 | 7.42 |  |
| CC(C)c1cccc(C(C)C)c1NC(=O)NC(C)(Cc1ccccc1C(F)(F)F)C(=O)NCC1(c2ccccn2)CCCCC1 (stereo not drawn) [Example 20] | 7.48 | < 5.00 |  |
| CC(C)c1cccc(C(C)C)c1NC(=O)NC(C)(Cc1c[nH]c2ccccc12)C(=O)N[C@H]1COC(C)(C)O[C@H]1c1ccccc1 (single isomer, unassigned) [Example 25] | 7.02 |  |  |
| COc1ccc(C2(CNC(=O)C(C)(Cc3c[nH]c4ccccc34)NC(=O)Nc3ccc([N+](=O)[O-])cc3)CCCCC2)nc1 (stereo not drawn) [Example 27] |  | 9.00 |  |
| CC(C)c1cccc(C(C)C)c1NC(=O)NC(C)(Cc1ccccn1)C(=O)NCC1(c2ccccn2)CCCCC1 (stereo not drawn) [Example 22, 2-[3-(2,6-Diisopropyl-phenyl)-ureido]-2-methyl-3-pyridin-2-yl-N-(1-pyridin-2-yl-cyclohexylmethyl)-propionamide] | 7.46 | 6.23 |  |
| CC(C)c1cccc(C(C)C)c1NC(=O)NC(C)(Cc1ccccc1[N+](=O)[O-])C(=O)NCC1(c2ccccn2)CCCCC1 (stereo not drawn) [Example 21] | 7.70 | 5.59 |  |
| CC(Cc1c[nH]c2ccccc12)(NC(=O)Nc1ccc([N+](=O)[O-])cc1)C(=O)NCC1CCCCC1 (stereo not drawn) [Example 8] | 8.52 | 6.35 |  |
| CC(C)c1cccc(C(C)C)c1NC(=O)NC(C)(Cc1cccc[n+]1[O-])C(=O)NCC1(c2ccccn2)CCCCC1 (stereo not drawn) [Example 19, 2-[3-(2,6-Diisopropyl-phenyl)-ureido]-2-methyl-3-(1-oxy-pyridin-2-yl)-N-(1-pyridin-2-yl-cyclohexylmethyl)-propionamide] | 8.52 | 6.12 |  |
| CC(C)c1cccc(C(C)C)c1NC(=O)N[C@@](C)(Cc1c[nH]c2ccccc12)C(=O)NCC1CCCCC1 [Example 11, N-Cyclohexylmethyl-2-[3-(2,6-diisopropyl-phenyl)-ureido]-3-(1H-indol-3-yl)-2-methyl-propionamide] | 6.99 | < 5.00 |  |
| C[C@H](NC(=O)N[C@@](C)(Cc1c[nH]c2ccccc12)C(=O)NCC1(c2ccccn2)CCCCC1)c1ccc([N+](=O)[O-])cc1 [Example 12] | 9.15 | 7.22 |  |
| CC(C)c1cccc(C(C)C)c1NC(=O)NC(Cc1c[nH]c2ccccc12)C(=O)N(C)CC1CCCCC1 (stereo not drawn) [Example 7, N-Cyclohexylmethyl-2-[3-(2,6-diisopropyl-phenyl)-ureido]-3-(1H-indol-3-yl)-N-methyl-propionamide] | 6.31 | < 5.00 |  |
